Data taken from ChEMBL document CHEMBL5055672, “Design, Synthesis, Biological Evaluation, and Computational Studies of Novel Fluorinated Candidates as PI3K Inhibitors: Targeting Fluorophilic Binding Sites” (J Med Chem, 2021).

What was measured:
CCRF-CEM = experiment: Cytotoxicity against human CCRF-CEM cells assessed as growth inhibition at 10 uM after 48 hrs by sulforhodamine B assay; format: functional; conditions: read-out: GI
K562 = experiment: Cytotoxicity against human K562 cells assessed as growth inhibition at 10 uM after 48 hrs by sulforhodamine B assay; format: functional; conditions: read-out: GI
MOLT-4 = experiment: Cytotoxicity against human MOLT-4 cells assessed as growth inhibition at 10 uM after 48 hrs by sulforhodamine B assay; format: functional; conditions: read-out: GI
SR = experiment: Cytotoxicity against human SR cells assessed as growth inhibition at 10 uM after 48 hrs by sulforhodamine B assay; format: functional; conditions: read-out: GI
A549 = experiment: Cytotoxicity against human A549 cells assessed as growth inhibition at 10 uM after 48 hrs by sulforhodamine B assay; format: functional; conditions: read-out: GI
HOP-62 = experiment: Cytotoxicity against human HOP-62 cells assessed as growth inhibition at 10 uM after 48 hrs by sulforhodamine B assay; format: functional; conditions: read-out: GI
HOP-92 = experiment: Cytotoxicity against human HOP-92 cells assessed as growth inhibition at 10 uM after 48 hrs by sulforhodamine B assay; format: functional; conditions: read-out: GI
NCI-H460 = experiment: Cytotoxicity against human NCI-H460 cells assessed as growth inhibition at 10 uM after 48 hrs by sulforhodamine B assay; format: functional; conditions: read-out: GI
NCI-H522 = experiment: Cytotoxicity against human NCI-H522 cells assessed as growth inhibition at 10 uM after 48 hrs by sulforhodamine B assay; format: functional; conditions: read-out: GI
HCT-116 = experiment: Cytotoxicity against human HCT-116 cells assessed as growth inhibition at 10 uM after 48 hrs by sulforhodamine B assay; format: functional; conditions: read-out: GI
HCT-15 = experiment: Cytotoxicity against human HCT-15 cells assessed as growth inhibition at 10 uM after 48 hrs by sulforhodamine B assay; format: functional; conditions: read-out: GI
SW-620 = experiment: Cytotoxicity against human SW-620 cells assessed as growth inhibition at 10 uM after 48 hrs by sulforhodamine B assay; format: functional; conditions: read-out: GI
SF-268 = experiment: Cytotoxicity against human SF-268 cells assessed as growth inhibition at 10 uM after 48 hrs by sulforhodamine B assay; format: functional; conditions: read-out: GI
SF-295 = experiment: Cytotoxicity against human SF-295 cells assessed as growth inhibition at 10 uM after 48 hrs by sulforhodamine B assay; format: functional; conditions: read-out: GI
SNB-75 = experiment: Cytotoxicity against human SNB-75 cells assessed as growth inhibition at 10 uM after 48 hrs by sulforhodamine B assay; format: functional; conditions: read-out: GI
U-251 = experiment: Cytotoxicity against human U-251 cells assessed as growth inhibition at 10 uM after 48 hrs by sulforhodamine B assay; format: functional; conditions: read-out: GI
LOX IMVI = experiment: Cytotoxicity against human LOX IMVI cells assessed as growth inhibition at 10 uM after 48 hrs by sulforhodamine B assay; format: functional; conditions: read-out: GI
OVCAR-8 = experiment: Cytotoxicity against human OVCAR8 cells assessed as growth inhibition at 10 uM after 48 hrs by sulforhodamine B assay; format: functional; conditions: read-out: GI
NCI/ADR-RES = experiment: Cytotoxicity against human NCI-ADR-RES cells assessed as growth inhibition at 10 uM after 48 hrs by sulforhodamine B assay; format: functional; conditions: read-out: GI
ACHN = experiment: Cytotoxicity against human ACHN cells assessed as growth inhibition at 10 uM after 48 hrs by sulforhodamine B assay; format: functional; conditions: read-out: GI
CAKI-1 = experiment: Cytotoxicity against human CAKI-1 cells assessed as growth inhibition at 10 uM after 48 hrs by sulforhodamine B assay; format: functional; conditions: read-out: GI
UO-31 = experiment: Cytotoxicity against human UO-31 cells assessed as growth inhibition at 10 uM after 48 hrs by sulforhodamine B assay; format: functional; conditions: read-out: GI
MCF7 [1] = experiment: Cytotoxicity against human MCF7 cells assessed as growth inhibition at 10 uM after 48 hrs by sulforhodamine B assay; format: functional; conditions: read-out: GI
T47D = experiment: Cytotoxicity against human T47D cells assessed as growth inhibition at 10 uM after 48 hrs by sulforhodamine B assay; format: functional; conditions: read-out: GI
MDA-MB-468 = experiment: Cytotoxicity against human MDA-MB-468 cells assessed as growth inhibition at 10 uM after 48 hrs by sulforhodamine B assay; format: functional; conditions: read-out: GI
MCF-10A = experiment: Cytotoxicity against human MCF10A cells assessed as inhibition of cell growth incubated for 48 hrs by MTT assay; format: cell-based
[2] = Selectivity index, ratio of IC50 for human MCF-10A cells to IC50 for human MCF7 cells; format: toxicity; conditions: MCF-10A cells versus MCF7 cells, read-out: Ratio IC50
[3] = target: Phosphatidylinositol 4,5-bisphosphate 3-kinase catalytic subunit alpha isoform (Homo sapiens, UniProt P42336); experiment: Inhibition of PI3Kalpha (unknown origin) using PIP2 as substrate preincubated for 10 mins followed by substrate addition and measured after 1 hr by ELISA
Phosphatidylinositol 4,5-bisphosphate 3-kinase catalytic subunit alpha isoform, sequence (P42336 whole entry, canonical isoform): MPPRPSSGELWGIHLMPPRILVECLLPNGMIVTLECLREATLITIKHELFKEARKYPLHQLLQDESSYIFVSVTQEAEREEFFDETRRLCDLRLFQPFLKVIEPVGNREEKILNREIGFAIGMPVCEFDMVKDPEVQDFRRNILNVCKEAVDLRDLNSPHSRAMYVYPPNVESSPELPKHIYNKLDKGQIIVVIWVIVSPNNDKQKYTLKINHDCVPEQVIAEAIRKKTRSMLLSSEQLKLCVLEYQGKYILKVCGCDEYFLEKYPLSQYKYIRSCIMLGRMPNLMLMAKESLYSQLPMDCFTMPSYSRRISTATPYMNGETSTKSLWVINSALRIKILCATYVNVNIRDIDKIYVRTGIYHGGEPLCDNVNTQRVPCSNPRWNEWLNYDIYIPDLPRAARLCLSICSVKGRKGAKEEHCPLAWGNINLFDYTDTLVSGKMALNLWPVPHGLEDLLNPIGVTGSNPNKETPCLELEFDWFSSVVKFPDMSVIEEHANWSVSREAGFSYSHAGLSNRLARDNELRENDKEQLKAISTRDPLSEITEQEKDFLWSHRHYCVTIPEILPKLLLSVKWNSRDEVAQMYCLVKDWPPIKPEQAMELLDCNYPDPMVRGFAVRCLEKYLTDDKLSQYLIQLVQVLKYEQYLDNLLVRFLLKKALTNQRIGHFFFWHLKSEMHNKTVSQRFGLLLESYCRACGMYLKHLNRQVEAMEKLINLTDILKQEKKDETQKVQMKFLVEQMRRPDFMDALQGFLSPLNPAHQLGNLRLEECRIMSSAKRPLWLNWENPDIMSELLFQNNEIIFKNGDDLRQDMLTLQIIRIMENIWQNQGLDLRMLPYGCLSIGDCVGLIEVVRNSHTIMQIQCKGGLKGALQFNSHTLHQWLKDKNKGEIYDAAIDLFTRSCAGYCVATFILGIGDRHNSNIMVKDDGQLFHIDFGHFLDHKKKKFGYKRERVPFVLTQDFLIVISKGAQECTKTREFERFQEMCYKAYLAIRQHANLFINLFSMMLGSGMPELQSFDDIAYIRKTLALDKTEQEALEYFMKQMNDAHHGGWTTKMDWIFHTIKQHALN

MCF7 [4] = experiment: Induction of cell cycle arrest in human MCF7 cells assessed as accumulation of cells at G phase at IC50 concentration by Propidium iodide staining based flow cytometric analysis (reference value: 1.76%); format: functional
MCF7 [5] = experiment: Induction of cell cycle arrest in human MCF7 cells assessed as accumulation of cells at G1 phase at IC50 concentration by Propidium iodide staining based flow cytometric analysis (reference value: 61.45%); format: functional
MCF7 [6] = experiment: Induction of cell cycle arrest in human MCF7 cells assessed as accumulation of cells at G2/M phase at IC50 concentration by Propidium iodide staining based flow cytometric analysis (reference value: 10.94%); format: functional
MCF7 [7] = experiment: Induction of cell cycle arrest in human MCF7 cells assessed as accumulation of cells at S phase at IC50 concentration by Propidium iodide staining based flow cytometric analysis (reference value: 27.61%); format: functional
MCF7 [8] = experiment: Induction of apoptosis in human MCF7 cells assessed as early apoptotic cells at 13.30 uM after 48 hrs by annexin V-FITC/propidium iodide staining based flow cytometric analysis (reference value: 0.36%); format: functional; conditions: dose 13.3 µM
MCF7 [9] = experiment: Induction of apoptosis in human MCF7 cells assessed as late apoptotic cells at 13.30 uM after 48 hrs by annexin V-FITC/propidium iodide staining based flow cytometric analysis (reference value: 0.14%); format: functional; conditions: dose 13.3 µM
MCF7 [10] = experiment: Induction of apoptosis in human MCF7 cells assessed as necrotic cells at 13.30 uM after 48 hrs by annexin V-FITC/propidium iodide staining based flow cytometric analysis (reference value: 1.26%); format: functional; conditions: dose 13.3 µM
[11] = target: Phosphatidylinositol 4,5-bisphosphate 3-kinase catalytic subunit beta isoform (Homo sapiens, UniProt P42338); experiment: Inhibition of PI3Kbeta (unknown origin) using PIP2 as substrate preincubated for 10 mins followed by substrate addition and measured after 1 hr by ELISA
Phosphatidylinositol 4,5-bisphosphate 3-kinase catalytic subunit beta isoform, sequence (P42338 whole entry, canonical isoform): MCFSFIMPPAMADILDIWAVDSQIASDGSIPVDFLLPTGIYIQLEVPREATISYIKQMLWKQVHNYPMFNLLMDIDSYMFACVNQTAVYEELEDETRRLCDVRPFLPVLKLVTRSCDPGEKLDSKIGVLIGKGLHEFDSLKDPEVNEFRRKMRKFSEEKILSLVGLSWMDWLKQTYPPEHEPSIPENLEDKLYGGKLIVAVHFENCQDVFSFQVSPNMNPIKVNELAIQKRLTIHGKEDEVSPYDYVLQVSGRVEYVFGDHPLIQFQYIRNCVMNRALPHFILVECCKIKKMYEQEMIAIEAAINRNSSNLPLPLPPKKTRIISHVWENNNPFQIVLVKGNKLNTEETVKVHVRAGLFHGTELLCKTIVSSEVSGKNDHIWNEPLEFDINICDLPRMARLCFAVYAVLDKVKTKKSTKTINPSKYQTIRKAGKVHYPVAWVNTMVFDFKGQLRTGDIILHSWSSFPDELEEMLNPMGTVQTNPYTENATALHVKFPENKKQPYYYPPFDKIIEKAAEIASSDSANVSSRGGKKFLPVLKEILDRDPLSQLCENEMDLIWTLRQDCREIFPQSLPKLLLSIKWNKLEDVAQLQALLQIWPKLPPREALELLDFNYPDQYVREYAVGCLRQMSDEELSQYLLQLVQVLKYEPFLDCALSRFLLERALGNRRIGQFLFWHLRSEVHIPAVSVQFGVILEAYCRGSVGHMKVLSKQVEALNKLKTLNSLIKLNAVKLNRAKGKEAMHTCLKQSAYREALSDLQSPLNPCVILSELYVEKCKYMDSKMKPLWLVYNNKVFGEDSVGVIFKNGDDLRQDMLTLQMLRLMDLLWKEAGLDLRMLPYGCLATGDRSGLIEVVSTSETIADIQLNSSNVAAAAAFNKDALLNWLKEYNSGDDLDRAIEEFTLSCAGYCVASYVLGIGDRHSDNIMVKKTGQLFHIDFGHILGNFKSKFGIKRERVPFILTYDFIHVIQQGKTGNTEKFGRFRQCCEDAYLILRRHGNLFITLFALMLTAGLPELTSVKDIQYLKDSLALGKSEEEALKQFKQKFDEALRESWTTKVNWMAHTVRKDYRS

For `COC(=O)/C=C1\S/C(=N\N=C\c2ccc(OCC(F)(F)F)cc2)N(c2ccccc2)C1=O`, which inhibition of growth at 10 µM (CCRF-CEM) is on record?
The inhibition of growth at 10 µM was 13.5%.

What about the inhibition of growth at 10 µM (K562) of the same compound?
Its inhibition of growth at 10 µM is 25.7%.

What about the inhibition of growth at 10 µM (MOLT-4) of the same compound?
The inhibition of growth at 10 µM was 13.4%.

What about the inhibition of growth at 10 µM (SR) of the same compound?
The inhibition of growth at 10 µM was 24.7%.

What about the inhibition of growth at 10 µM (A549) of the same compound?
Its inhibition of growth at 10 µM is 15.3%.

What about the inhibition of growth at 10 µM (HOP-62) of the same compound?
Its inhibition of growth at 10 µM is 31.5%.

What about the inhibition of growth at 10 µM (HOP-92) of the same compound?
The inhibition of growth at 10 µM was 20.1%.

What about the inhibition of growth at 10 µM (NCI-H460) of the same compound?
Its inhibition of growth at 10 µM is 14.2%.

And the inhibition of growth at 10 µM (NCI-H522)?
The inhibition of growth at 10 µM was 12.2%.

What about the inhibition of growth at 10 µM (HCT-116) of the same compound?
Its inhibition of growth at 10 µM is 28.8%.

What about the inhibition of growth at 10 µM (HCT-15) of the same compound?
Its inhibition of growth at 10 µM is 17.3%.

And the inhibition of growth at 10 µM (SW-620)?
Its inhibition of growth at 10 µM is 12.4%.

And the inhibition of growth at 10 µM (SF-268)?
Its inhibition of growth at 10 µM is 11.8%.

What about the inhibition of growth at 10 µM (SF-295) of the same compound?
Its inhibition of growth at 10 µM is 13.2%.

And the inhibition of growth at 10 µM (SNB-75)?
Its inhibition of growth at 10 µM is 28.2%.

And the inhibition of growth at 10 µM (U-251)?
The inhibition of growth at 10 µM was 23.1%.

And the inhibition of growth at 10 µM (LOX IMVI)?
Its inhibition of growth at 10 µM is 24.1%.

What about the inhibition of growth at 10 µM (OVCAR-8) of the same compound?
The inhibition of growth at 10 µM was 35.5%.

What about the inhibition of growth at 10 µM (NCI/ADR-RES) of the same compound?
The inhibition of growth at 10 µM was 24.6%.

And the inhibition of growth at 10 µM (ACHN)?
Its inhibition of growth at 10 µM is 24%.

What about the inhibition of growth at 10 µM (CAKI-1) of the same compound?
Its inhibition of growth at 10 µM is 26.6%.

And the inhibition of growth at 10 µM (UO-31)?
The inhibition of growth at 10 µM was 24.8%.

What about the inhibition of growth at 10 µM (MCF7 [1]) of the same compound?
The inhibition of growth at 10 µM was 33.2%.

What about the inhibition of growth at 10 µM (T47D) of the same compound?
The inhibition of growth at 10 µM was 14.5%.

And the inhibition of growth at 10 µM (MDA-MB-468)?
The inhibition of growth at 10 µM was 47.6%.

What about the IC50 (MCF-10A) of the same compound?
Its IC50 is 24.2 µM.

What about the selectivity ratio [2] of the same compound?
The selectivity ratio was 1.81.

And the IC50 [3]?
Its IC50 is 77.5 µM.

And the Activity (MCF7 [4])?
Its Activity is 19.52%.

What about the Activity (MCF7 [5]) of the same compound?
Its Activity is 55.47%.

What about the Activity (MCF7 [6]) of the same compound?
Its Activity is 8.51%.

And the Activity (MCF7 [7])?
Its Activity is 36.02%.

And the Activity (MCF7 [8])?
The Activity was 2.71%.

And the Activity (MCF7 [9])?
The Activity was 9.42%.

And the Activity (MCF7 [10])?
Its Activity is 7.39%.

What about the IC50 [11] of the same compound?
The IC50 was 53.5 µM.
